# In patent US20220064146A1, “KINASE INHIBITOR COMPOUNDS AND COMPOSITIONS AND METHODS OF USE” (ICAHN SCHOOL OF MEDICINE AT MOUNT SINAI, priority 2018, published 2022):
# Molecular target: T1, DYRK1/DYRK1A (Homo sapiens, UniProt Q13627)
# T1 construct: purchased Reaction Biology Corp. (assay service)
# Experiment: DYRK1/DYRK1A IC50 assay (Reaction Biology Corp.)
# Type: biochemical
# Settings: DYRK1/DYRK1A assay from Reaction Biology Corp.; NI: No inhibition
row,IC50,Compound
1,499 nM,"C[C@@H](Nc1ncc(-c2ccc3[nH]c(=O)[nH]c3c2)cn1)c1ccccc1 [Compound 60a, (R)-5-(2-((1-Phenylethyl)amino)pyrimidin-5-yl)-1H-benzo[d]imidazol-2(3H)-one]"
2,177 nM,"C[C@H](Nc1ncc(-c2ccc3[nH]c(=O)[nH]c3c2)cn1)c1ccccc1 [Compound 60b, (S)-5-(2-((1-Phenylethyl)amino)pyrimidin-5-yl)-1H-benzo[d]imidazol-2(3H)-one]"

# Second part, the compound before the results:
row,Compound,IC50
1,"CCn1c(=O)[nH]c2ccc(-c3cnc(NCc4ccccc4)nc3)cc21 [Compound 57a, 6-(2-(Benzylamino)pyrimidin-5-yl)-1-ethyl-1H-benzo[d]imidazol-2(3H)-one]",243 nM
2,"CC(C)n1c(=O)[nH]c2ccc(-c3cnc(NCc4ccccc4)nc3)cc21 [Compound 57b, 6-(2-(Benzylamino)pyrimidin-5-yl)-1-isopropyl-1H-benzo[d]imidazol-2(3H)-one]",4280 nM
3,"O=c1[nH]c2ccc(-c3cnc(NCc4ccccc4)nc3)cc2n1C1CC1 [Compound 57c, 6-(2-(Benzylamino)pyrimidin-5-yl)-1-cyclopropyl-1H-benzo[d]imidazol-2(3H)-one]",714 nM
4,"COCCOc1cccc(CNc2ncc(-c3ccc4[nH]c(=O)[nH]c4c3)cn2)c1 [Compound 62, 5-(2-((3-(2-Methoxyethoxy)benzyl)amino)pyrimidin-5-yl)-1H-benzo[d]imidazol-2(3H)-one]",48.4 nM
